Test results taken from ChEMBL document CHEMBL1150889, “Thiomycalolides: new cytotoxic trisoxazole-containing macrolides isolated from a marine sponge Mycale sp” (J Nat Prod, 1998).
Values after ≈ are worked out from the molar mass of the structure shown.

System: P388
Experiment: Cytotoxicity against mouse P388 cells
Format: functional, cell-based

COC(CC1OC(=O)CC(O)CC(SC[C@H](NC(=O)CC[C@H](N)C(=O)O)C(=O)NCC(=O)O)CC(=O)C(C)C(OC)c2coc(n2)-c2coc(n2)-c2coc(n2)/C=C/CC(OC)C1C)C(C)CCC(=O)C(C)C(OC(C)=O)C(C)/C=C/N(C)C=O (some centres not stated) [THIOMYCALOLIDE A]
IC50: 0.018 µg/mL (≈ 0.0148 µM)

COCC(OC)C(=O)OC(CCC(C)C(CC1OC(=O)CC(O)CC(SC[C@H](NC(=O)CC[C@H](N)C(=O)O)C(=O)NCC(=O)O)CC(=O)C(C)C(OC)c2coc(n2)-c2coc(n2)-c2coc(n2)/C=C/CC(OC)C1C)OC)C(C)C(OC(C)=O)C(C)/C=C/N(C)C=O (some centres not stated) [THIOMYCALOLIDE B]
IC50: 0.018 µg/mL (≈ 0.0135 µM)
